DBAASP
In brackets after ≈: the same amount, converted by molar mass. Blank lines part the entries; values can stand above or below the molecule they belong to.

How the values were obtained:
Test in all cases: ≥ marks a high value that may be exact or a test limit, other limits are often not marked, values filed in µg/mL are converted to µM
Staphylococcus aureus = system: Staphylococcus aureus
Escherichia coli W3110 = system: Escherichia coli W3110
Enterococcus faecalis = system: Enterococcus faecalis
[1] = system: Streptococcus mutans UA159
[2] = system: Streptococcus sanguinis NY101
[3] = system: Pseudomonas aeruginosa PAK
[4] = system: Streptococcus sobrinus ATCC 33478
[5] = system: Listeria monocytogenes BCRC 14845
[6] = system: Escherichia coli BCRC 10675
Lactococcus garvieae = system: Lactococcus garvieae
[7] = system: Vibrio alginolyticus BCRC 12829
[8] = system: Klebsiella aerogenes BCRC 10370
[9] = system: Pseudomonas aeruginosa BCRC 10944
Vibrio parahaemolyticus = system: Vibrio parahaemolyticus
Streptococcus iniae = system: Streptococcus iniae
Vibrio harveyi = system: Vibrio harveyi
[10] = system: Staphylococcus aureus BCRC 10781
[11] = system: Streptococcus equinus BCRC 14729
[12] = system: Vibrio anguillarum serotype O1
Vibrio alginolyticus = system: Vibrio alginolyticus
[13] = system: Enterobacter cloacae BCRC 10401
[14] = system: Yersinia enterocolitica BCRC 13999
[15] = system: Staphylococcus xylosus BCRC 12930
[16] = system: Staphylococcus aureus BCRC 10780
[17] = system: Vibrio parahaemolyticus BCRC 10806
[18] = system: Klebsiella oxytoca BCRC 13985
[19] = system: Corynebacterium glutamicum ATCC 13032
Aureobasidium pullulans = system: Aureobasidium pullulans
[20] = system: Bacillus subtilis ATCC 23857
Micrococcus luteus = system: Micrococcus luteus
[21] = system: Candida albicans ATCC 10231
[22] = system: Escherichia coli ATCC 25922
[23] = system: Staphylococcus aureus ATCC 9144
[24] = system: Pseudomonas aeruginosa ATCC 27853
Bacillus megaterium = system: Bacillus megaterium
[25] = system: Streptococcus gordonii Challis DL1
[26] = system: Streptococcus mitis ATCC 903

SMILES: CC[C@H](C)[C@H](NC(=O)[C@H](CCCCN)NC(=O)[C@@H](NC(=O)[C@@H](NC(=O)[C@@H](NC(=O)[C@H](CCCCN)NC(=O)[C@@H](NC(=O)[C@@H](NC(=O)[C@H](CCCCN)NC(=O)[C@H](CCCCN)NC(=O)[C@H](C)NC(=O)[C@H](Cc1ccc(O)cc1)NC(=O)[C@@H](NC(=O)[C@H](C)NC(=O)CN)[C@@H](C)O)[C@@H](C)CC)[C@@H](C)CC)[C@@H](C)O)[C@@H](C)CC)[C@@H](C)O)C(=O)N[C@@H](C)C(=O)N[C@H](C(=O)N[C@H](C(=O)N[C@@H](C)C(=O)N[C@@H](Cc1c[nH]c2ccccc12)C(=O)O)[C@@H](C)O)[C@@H](C)O [GATYAKKIIKTITKIATTAW]
MIC [5]: ≥ 58.7 µM
MIC [6]: 7.34 µM (≈ 16 µg/mL)
MIC (Lactococcus garvieae): ≥ 58.7 µM
MIC [7]: ≥ 58.7 µM
MIC [8]: 29.4 µM (≈ 64 µg/mL)
MIC [9]: 29.4 µM (≈ 64 µg/mL)
MIC (Vibrio parahaemolyticus): 29.4 µM (≈ 64 µg/mL)
MIC (Streptococcus iniae): ≥ 58.7 µM
MIC (Vibrio harveyi): 29.4 µM (≈ 64 µg/mL)
MIC [10]: ≥ 58.7 µM
MIC [11]: ≥ 58.7 µM
MIC [12]: 29.4 µM (≈ 64 µg/mL)
MIC (Vibrio alginolyticus): 29.4 µM (≈ 64 µg/mL)
MIC [13]: 14.7 µM (≈ 32 µg/mL)
MIC [14]: ≥ 58.7 µM
MIC [15]: 29.4 µM (≈ 64 µg/mL)
MIC [16]: ≥ 58.7 µM
MIC [17]: ≥ 58.7 µM
MIC [18]: 29.4 µM (≈ 64 µg/mL)

SMILES: CC(C)C[C@H](NC(=O)[C@H](CC(C)C)NC(=O)[C@H](CC(C)C)NC(=O)[C@@H]1CCCN1C(=O)[C@H](CCCN=C(N)N)NC(=O)[C@H](CCCN=C(N)N)NC(=O)CN)C(=O)N[C@@H](CCCN=C(N)N)C(=O)N[C@@H](C)C(=O)N[C@@H](CCCN=C(N)N)C(N)=O [GRRPLLLRAR]
MIC [19]: 25.9 µM (≈ 31.3 µg/mL)
MIC (Aureobasidium pullulans): ≥ 207 µM
MIC [20]: ≥ 207 µM
MIC (Micrococcus luteus): ≥ 51.8 µM
MIC [21]: 104 µM (≈ 125 µg/mL)
MIC [22]: > 207 µM
MIC [23]: ≥ 207 µM
MIC [24]: > 207 µM
MIC (Bacillus megaterium): 6.46 µM (≈ 7.79 µg/mL)

SMILES: C[C@H](NC(=O)[C@H](CCCN=C(N)N)NC(=O)[C@H](Cc1c[nH]c2ccccc12)NC(=O)[C@H](Cc1c[nH]c2ccccc12)NC(=O)[C@H](Cc1c[nH]c2ccccc12)NC(=O)[C@H](Cc1c[nH]c2ccccc12)NC(=O)[C@H](CCCN=C(N)N)NC(=O)[C@H](CCCN=C(N)N)NC(=O)CN)C(=O)N[C@@H](CCCN=C(N)N)C(N)=O [GRRWWWWRAR]
MIC [19]: 5.15 µM (≈ 7.8 µg/mL)
MIC (Aureobasidium pullulans): ≥ 41.2 µM
MIC [20]: 5.15 µM (≈ 7.8 µg/mL)
MIC (Micrococcus luteus): 10.3 µM (≈ 15.6 µg/mL)
MIC [21]: 41.2 µM (≈ 62.5 µg/mL)
MIC [22]: 10.3 µM (≈ 15.6 µg/mL)
MIC [23]: ≥ 41.2 µM
MIC [24]: 20.7 µM (≈ 31.3 µg/mL)
MIC (Bacillus megaterium): 2.57 µM (≈ 3.9 µg/mL)

SMILES: CC[C@H](C)[C@H](NC(=O)[C@H](Cc1cnc[nH]1)NC(=O)[C@H](CCCCN)NC(=O)[C@@H](NC(=O)[C@@H](N)CC(C)C)[C@@H](C)CC)C(=O)N[C@@H](CC(C)C)C(=O)N[C@@H](Cc1cnc[nH]1)C(=O)N[C@@H](CCCN=C(N)N)C(=O)N[C@@H](CC(C)C)C(=O)NCC(=O)NCC(=O)NCC(=O)N[C@@H](Cc1ccccc1)C(=O)N[C@@H](Cc1cnc[nH]1)C(=O)N[C@@H](Cc1ccccc1)C(=O)N[C@@H](Cc1cnc[nH]1)C(=O)N[C@@H](CC(C)C)C(=O)N[C@@H](Cc1cnc[nH]1)C(=O)N[C@@H](Cc1ccccc1)C(N)=O [LIKHILHRLGGGFHFHLHF]
MIC (Staphylococcus aureus): 27.4 µM (≈ 62.5 µg/mL)
MIC (Escherichia coli W3110): ≥ 110 µM
MIC (Enterococcus faecalis): 14 µM (≈ 32 µg/mL)
MIC [1]: 7.02 µM (≈ 16 µg/mL)
MIC [2]: 27.4 µM (≈ 62.5 µg/mL)
MIC [3]: ≥ 110 µM
MIC [4]: 14 µM (≈ 32 µg/mL)

Further lines, with some results ahead:

MIC (Staphylococcus aureus): > 190 µM
MIC (Escherichia coli W3110): ≥ 47.4 µM
MIC (Enterococcus faecalis): ≥ 94.8 µM
MIC [1]: 23.7 µM (≈ 62.5 µg/mL)
MIC [2]: 23.7 µM (≈ 62.5 µg/mL)
MIC [3]: ≥ 190 µM
MIC [4]: 23.7 µM (≈ 62.5 µg/mL)
SMILES: CC[C@H](C)[C@H](NC(=O)[C@H](Cc1ccccc1)NC(=O)[C@H](Cc1cnc[nH]1)NC(=O)[C@H](CCCCN)NC(=O)[C@@H](NC(=O)[C@H](Cc1ccccc1)NC(=O)[C@@H]1CCCN1C(=O)[C@H](CO)NC(=O)CNC(=O)[C@H](CO)NC(=O)[C@@H]1CCCN1C(=O)[C@H](Cc1ccccc1)NC(=O)[C@H](Cc1cnc[nH]1)NC(=O)[C@H](CC(C)C)NC(=O)[C@H](Cc1cnc[nH]1)NC(=O)[C@H](Cc1ccccc1)NC(=O)[C@H](Cc1cnc[nH]1)NC(=O)[C@@H](N)Cc1ccccc1)[C@@H](C)CC)C(=O)N[C@@H](Cc1cnc[nH]1)C(=O)N[C@@H](CCCN=C(N)N)C(=O)N[C@@H](Cc1ccccc1)C(N)=O [FHFHLHFPSGSPFIKHFIHRF]

MIC [5]: 3.38 µM (≈ 8 µg/mL)
MIC [6]: 13.5 µM (≈ 32 µg/mL)
MIC (Lactococcus garvieae): 13.5 µM (≈ 32 µg/mL)
MIC [7]: 13.5 µM (≈ 32 µg/mL)
MIC [8]: 6.75 µM (≈ 16 µg/mL)
MIC [9]: 13.5 µM (≈ 32 µg/mL)
MIC (Streptococcus iniae): 13.5 µM (≈ 32 µg/mL)
MIC (Vibrio harveyi): 3.38 µM (≈ 8 µg/mL)
MIC [10]: 6.75 µM (≈ 16 µg/mL)
MIC [11]: ≥ 54 µM
MIC [12]: 3.38 µM (≈ 8 µg/mL)
MIC (Vibrio alginolyticus): 3.38 µM (≈ 8 µg/mL)
MIC [13]: 6.75 µM (≈ 16 µg/mL)
MIC [14]: 27 µM (≈ 64 µg/mL)
MIC [15]: 6.75 µM (≈ 16 µg/mL)
MIC [16]: 6.75 µM (≈ 16 µg/mL)
MIC [18]: ≥ 54 µM
SMILES: CC[C@H](C)[C@H](NC(=O)[C@H](C)NC(=O)[C@@H](NC(=O)[C@H](Cc1ccc(O)cc1)NC(=O)[C@@H](NC(=O)[C@H](CCCCN)NC(=O)[C@H](CCCCN)NC(=O)[C@H](C)NC(=O)[C@H](Cc1ccccc1)NC(=O)[C@H](CC(N)=O)NC(=O)[C@H](CC(C)C)NC(=O)[C@@H](NC(=O)[C@H](CCCCN)NC(=O)[C@H](CCCCN)NC(=O)[C@H](CC(C)C)NC(=O)[C@H](Cc1ccccc1)NC(=O)[C@@H](NC(=O)[C@H](CC(C)C)NC(=O)CN)[C@@H](C)O)[C@@H](C)CC)[C@@H](C)CC)[C@@H](C)O)C(=O)N[C@@H](Cc1c[nH]c2ccccc12)C(=O)O [GLTFLKKILNFAKKIYTAIW]
MIC (Vibrio parahaemolyticus): 3.38 µM (≈ 8 µg/mL)
MIC [17]: 13.5 µM (≈ 32 µg/mL)

MIC [19]: 0.8 µM (≈ 1.17 µg/mL)
MIC (Aureobasidium pullulans): 25 µM (≈ 36.4 µg/mL)
MIC [21]: 25 µM (≈ 36.4 µg/mL)
MIC [22]: 6.3 µM (≈ 9.18 µg/mL)
MIC [23]: ≥ 100 µM
MIC [24]: 25 µM (≈ 36.4 µg/mL)
SMILES: CC(C)[C@H](NC(=O)[C@H](CCCCN)NC(=O)[C@H](C)NC(=O)[C@@H](NC(=O)[C@@H](NC(=O)[C@H](C)NC(=O)[C@H](CCCN=C(N)N)NC(=O)[C@H](Cc1c[nH]c2ccccc12)NC(=O)[C@H](Cc1c[nH]c2ccccc12)NC(=O)CN)[C@@H](C)O)C(C)C)C(=O)N[C@@H](CCCN=C(N)N)C(=O)N[C@@H](CCCCN)C(N)=O [GWWRATVAKVRK]

MIC (Staphylococcus aureus): > 348 µM
MIC (Escherichia coli W3110): ≥ 348 µM
MIC (Enterococcus faecalis): ≥ 348 µM
MIC [25]: ≥ 348 µM
MIC [26]: ≥ 348 µM
MIC [1]: ≥ 348 µM
MIC [2]: ≥ 348 µM
MIC [3]: ≥ 348 µM
MIC [4]: ≥ 348 µM
SMILES: NC(=O)CC[C@H](NC(=O)[C@H](Cc1c[nH]c2ccccc12)NC(=O)[C@@H](N)Cc1c[nH]c2ccccc12)C(=O)N[C@@H](CC(=O)O)C(=O)N[C@@H](Cc1c[nH]c2ccccc12)C(=O)N[C@@H](Cc1c[nH]c2ccccc12)C(=O)N[C@@H](CC(N)=O)C(=O)N[C@@H](CCC(=O)O)C(=O)N[C@@H](Cc1c[nH]c2ccccc12)C(N)=O [WWQDWWNEW]
